Experimental data published in publication PMC9574862, “Designing Soluble PROTACs: Strategies and Preliminary Guidelines” (Journal of Medicinal Chemistry, 2022).

Columns and labels:
physchem = details: for chromatographic logD: pH 7
Procedure: PROTAC experimental solubility was first correlated with lipophilicity descriptors (log P is implemented in the general solubility equation (GSE)[27]). As described by some of us,[16] BRlogD represents a validated,[28] very useful and straightforward chromatographic descriptor for the logarithm of the distribution coefficient in the n-octanol/water system (log D) of neutral and cationic bRo5 molecules.
The mobile phase consisted of an isocratic solution of 20 mM ammonium acetate (pH 7.0) and acetonitrile, 40–60%, respectively (v/v).[16] Samples were dissolved in buffer/ACN and injected into the XBridge column at a flow rate of 1.0 mL/min at 30 °C. Retention times were determined in duplicate, and the dead time, t0, was recorded as the baseline disturbance.

[1] = log kw^IAM – clog kw^IAM
Procedure: Since polarity is a molecular property often related to solubility,[13] experimental descriptors of polarity (Δ log kw^IAM and EPSA) were also determined. Introduced by Grumetto in 2012,[30] Δ log kw^IAM is the difference between the experimental log kw^IAM and the value expected for neutral analytes with a zero value of polar surface area (which depends on the experimental measurement of the n-octanol partition coefficient[31]). EPSA quantifies the polarity of a molecule using a supercritical fluid chromatographic (SFC) method.[32]

[2] = Thermodynamic solubility, shake-flask, 10 mM PBS (0.15 M KCl) pH 7, 25 °C, 1 h, HPLC-UV; details: pH 7, 25 °C; for solubility at 1 h: 25 °C, pH 7, aqueous buffer, thermodynamic from solid
Procedure: Its measurement only requires an initial DMSO stock solution which is precipitated by the addition of an aqueous phase.[23],[24] Here, we measured thermodynamic solubility, often determined in late lead optimization, which efficiently considers the solubility value when the equilibrium with the stable phase or polymorph has been reached.
Solubility was determined in 10 mM PBS (0.15 M KCl) at pH 7, 25 °C. A 1–2 mg sample of each molecule was added to the same quantity (1–2 mL) of the mentioned buffer to obtain 1 mg/mL solutions in the vial. Samples were then submitted to 25 °C and magnetic stirring (500 rpm) for 1 h. After this period, solutions or suspensions were filtered through the 0.45 μm membrane pore and diluted with buffer, 10 mM PBS (0.15 M KCl). The amount of dissolved compound in each sample was then quantified, in duplicate, via HPLC using ultraviolet (UV) spectrometric detection.
Variable volumes of pure DMSO (0–100 μL) were added separately to small and defined (1 mg) quantities of each compound to obtain clear solutions. […] Afterward, 5% DMSO 10 mM PBS (0.15 M KCl) was added until the suspensions or precipitations were redissolved, to render clear solutions. As soon as solutions were obtained, they were used as mother solutions for the performance of 5–10 point calibration curves with serial buffer dilutions (1:1; v/v) 5% DMSO 10 mM PBS (0.15 M KCl). Calibration points were then measured via HPLC-UV.
The mobile phase consisted of a solution of acetonitrile (ACN) and 20 mM ammonium acetate buffer (AAB), pH 7, freshly prepared. A 10 μL volume of each sample (volume of injection) was injected at an isocratic 1 mL/min flow rate analyzed at 30 °C (oven temperature). Solubility determination of each compound required a specific HPLC method. Settings are collected in Table S11 (PROTACs) and Table S10 (building blocks).
Injections were performed in duplicate for each molecule’s calibration points. The retention time and area under the curve (AUC in absorbance units) were collected, and the average was calculated. The AUC average (y-axis) was plotted versus theoretical concentration (mg/mL; x-axis) to obtain a calibration curve for each molecule. Correlation equations and coefficients (R^2) were efficiently calculated for each compound (Table S12 for PROTACs and Table S10 for building blocks). Samples were then injected in duplicate, and the AUC averages and standard deviations were calculated. Finally, the absorbance averages were interpolated into the corresponding equations, extracting the final solubility values with their standard deviation, after dilution factor corrections.

[3] = pH 7.0, extrapolated to 0% acetonitrile
Procedure: The logarithm of the capacity factor of an IAM column system, extrapolated at 100% water (log kw^IAM), is also an experimental descriptor of the lipophilicity of drugs since it mimics the interaction between the polar heads of the membrane phospholipids and the drug in solution.[29]
The mobile phase consisted of a solution of 20 mM ammonium acetate (pH 7.0) in a mixture with acetonitrile at various percentages (from 10 to 50%, v/v). Samples were dissolved in buffer/ACN and injected into the previously mentioned IAM column at a flow rate of 1.0 mL/min at 30 °C. Chromatographic retention data were determined in duplicate for the different mobile phase conditions. Data were recorded as log k′ (capacity factor k′ = [tR – t0]/t0), where tR and t0 are the retention times of the sample and a nonretained molecule (citric acid), respectively. Thus, log kw^IAM values were calculated by an extrapolation method of the experimental equation, at 0% acetonitrile. Moreover, five gold standard compounds (caffeine, carbamazepine, ketoprofen, theobromine, and toluene) were checked daily.

[4] = pKa determination by potentiometry (SiriusT3); details: for Ionization state at pH 7: experimental
Procedure: Solids were weighed with a Sartorius Entris224-1S Analytical (www.sartorius.com). pKa values were measured with a SiriusT3 instrument (Sirius Analytical Instruments) equipped with a reference pH electrode (Ag/AgCl double junction) and a turbidity detector. Ultrasonic cleaner, obtained from VWR Chemicals (www.vwr.com), and an IKA VORTEX 3 (www.ika.com) were used to avoid precipitation in the calibration points. Stirring and heating were provided by magnetic and heating plates C-MAG MS 7 and IKA ETS-D5, respectively (www.ika.com). Moreover, pH was measured with a Eutech pH Meter 2700 (www.fishersci.com). Analyses were carried out by high-performance liquid chromatography (HPLC; DIONEX Ultimate 3000, Thermo Scientific Inc.) provided with an RS diode array and Chromeleon 7.2.10 software (www.thermofisher.com). HPLC columns IAM.PC.DD2 (300 Å, 10 μm, 10 cm × 4.6 mm) from REGIS and XBridge Shield RP18 (130 Å, 5 μm, 5 cm × 4.6 mm) from Waters (www.waters.com) were used. Ergonomic high-performance single-channel variable volume pipettors, HPLC 1.5 mL vials, 0.1 mL microinsert, and PP 9 mm screw caps were obtained from VWR Signature. EPSA analyses were performed by supercritical fluid chromatography (SFC; JASCO SFC-4000, Jasco Europe srl), provided with a diode array and ChromNAV 2.04.00 software (www.jascoweb.com). The SFC column Chirex 3014 (S)-VAL and (R)-NEA (100 Å, 5 μm, 25 cm × 4.6 mm) from Phenomenex was used.
Acidic dissociation constants of pomalidomide, S,R,S-AHPC HCl, and S,S,S-AHPC 2HCl were measured potentiometrically. Titrations were performed to 0.15 M KCl sample solutions under a nitrogen atmosphere at 25 ± 1 °C. Moreover, standardized 0.5 M KOH and 0.5 M HCl were used as titration reagents (solutions were prepared from Titrisol (Merck) concentrated solutions).[45]

[5] = Exp.LogS, PROTAC pairs and building blocks

SMILES	chromatographic logD (physchem)	ΔLog kw IAM [1]	solubility at 1 h [2, 5]	Log kw IAM [3]	BRlogD (physchem; pH 7.0)	Experimental pKa (2-12) ([4]; 0.15 M KCl, 25 °C, (b) = basic)	Ionization state at pH 7 [4]	Ionization state at pH 7 ([4]; listed as pomalidomide)	solubility at 1 h ([2]; Solubility average, thermodynamic, shake-flask, 1 h)	solubility at 1 h ([2]; Solubility log S, Table S-3)	solubility at 1 h ([2]; Solubility, Table S-3)	Classification (GSK guidelines) ([2]; solubility class)
CC(=O)N1c2ccc(-c3ccc(C(=O)O)cc3)cc2[C@H](Nc2ccc(Cl)cc2)C[C@@H]1C [I-BET726]	0.3	2.64	60.3 µM	1.88	–	–	–	–	–	–	–	–
Cc1ncsc1-c1ccc(CNC(=O)[C@@H]2C[C@H](O)CN2C(=O)[C@@H](N)C(C)(C)C)cc1.Cl.Cl [S,S,S-AHPC 2HCl]	0.91	2.05	2040 µM	1.86	–	–	–	–	–	–	–	–
Nc1cccc2c1C(=O)N(C1CCC(=O)NC1=O)C2=O (centres unmarked) [Pomalidomide]	–	0.64	36.3 µM	0.91	1.41	Not ionizable	Neutral	not ionized	–	–	–	–
Cc1sc2c(c1C)C(c1ccc(Cl)cc1)=N[C@@H](CC(=O)O)c1nnc(C)n1-2 [JQ1 carboxylic acid]	0.08	1.76	> 2510 µM	0.80	–	–	–	–	–	–	–	–
Cc1ncsc1-c1ccc(CNC(=O)[C@@H]2C[C@@H](O)CN2C(=O)[C@@H](N)C(C)(C)C)cc1.Cl [S,R,S-AHPC HCl]	0.56	2.34	2090 µM	1.83	–	–	–	–	–	–	–	–
COc1cc(C(=O)NC2CCN(C)CC2)ccc1Nc1ncc(C(F)(F)F)c(Oc2cccc3c2C(=O)CC3)n1 [BI-4464]	1.79	1.23	64.6 µM	1.84	–	–	–	–	–	–	–	–
COc1cc(-c2cn(C)c(=O)c3cc(C(=N)NC4CCS(=O)(=O)CC4)sc23)ccc1OCC(=O)NCCCCNC(=O)COc1cccc2c1C(=O)N(C1CCC(=O)NC1=O)C2=O (centres unmarked) [BRD9 degrader-1]	–	high	–	–	–	–	–	–	661 µM	661 µM	600 µg/mL	High (> 200 μM) (High (> 200 μM))
